Source: patent US20260002132A1, “METHOD FOR PRODUCING RENAL COLLECTING DUCT CELLS AND PELVIC EPITHELIAL CELLS” (Kyoto University, priority 2022, published 2026)
Like-named read-outs stand apart in the source and are kept apart here.

What was measured:
[1] = system: ureteric bud cells derived from Tet-On-ELF5-1231A3 iPS cells; assay type: cell-based, human; settings: for effect on AQP2 expression in combination with IBMX: factor added together with IBMX
Experimental: Ureteric bud organoids on Day 6 were prepared from the Tet-On-ELF5-1231A3 iPS cells using the method previously described (WO2021/066076). In a 1.5 mL tube, 10 ureteric bud organoids were collected and washed twice with 500 μL PBS. 100 μL Accutase was added thereto, and the mixture was incubated for 3 minutes at 37° C., 5% CO2. The ureteric bud organoids were completely transformed into single cells by pipetting, and 900 μL DMEM/10% PBS was added thereto to count cells.
To a 24-well plate (6-well, 12-well, 48-well or 96-well plate, or 6-well, 12-well, or 24-well transwell plate may also be used), the necessary amount of suspension was collected to achieve 0.25 to 1.0×10^5 cells/cm^2, and centrifuged at 300 G for 5 minutes. The cell count was preferably 1×10^5 cells/cm^2. After removing the supernatant, cells were resuspended in a medium comprising DMEM/F12 GlutaMAX+B-27 Supplement minus vitamin A having 10% FBS, 1 μM A83-01, and 1 μM IWR-1 (renal collecting duct progenitor cell-induction medium) added thereto, to which 0.125 μg/cm^2 iMatrix-511 silk and 10 μM Y-27632 were added, and the suspension was adjusted and seeded so that each well contains 500 μL of the suspension. 0.1 μM TTNPB may be further added the medium.
The medium may further comprise 0.1 μM TTNPB, 100 nM desmopressin (dDAVP), 10 nM aldosterone, and 100 nM K252a, and preferably a medium comprising 3 agents of TTNPB, dDAVP, and aldosterone is suitable. Thereafter, the medium was replaced once every 2 days, and the induction into the principal cells was completed on Day 4.
The cultured cells were washed twice with PBS, and then, fixed with 4% PFA at 4° C. for 20 minutes. The cells were washed twice with PBS, and then, blocked using 2% normal donkey serum (MERCK)/PBT (PBS/0.25% Triton X-100, Nacalai tesque, Inc.) (blocking solution) at room temperature for 1 hour. Each primary antibody was diluted with the blocking solution at a rate of 1:200, and left to stand with samples at 4° C. for 24 hours. After washing twice with 0.25% PBT, each secondary antibody was diluted with the blocking solution at a rate of 1:500, and left to stand with samples at room temperature for 2 hours. The cells were observed using a microscope such as BZX-700 (Keyence Corporation).

[2] = system: renal collecting duct principal cell-containing organoid; experiment: Functional evaluation of renal collecting duct principal cell-containing organoids (water uptake, cystoid structure); assay type: cell-based, human; settings: organoid on Day 6 of the induction
Experimental: Ureteric bud organoids on Day 6 were prepared from the Tet-On-ELF5-1231A3 iPS cells using the method previously described (WO2021/066076). The medium was removed and replaced with the renal collecting duct progenitor cell-induction medium of 100 μL/well. 0.1 μM TTNPB may be further added the medium.
3 days later, the medium was replaced with the renal collecting duct principal cell-induction medium of 100 μL/well. The medium may further comprise 0.1 μM TTNPB, 100 nM dDAVP, 10 nM aldosterone, and 100 nM K252a, and preferably a medium comprising 3 agents of TTNPB, dDAVP, and aldosterone is suitable. The medium was replaced once every 2 days, and the preparation of principal cell-containing organoids was completed on Day 6.
The functional evaluation tests were performed on the renal collecting duct principal cell-containing organoids. For the renal collecting duct principal cell-containing organoid on Day 6 of the induction, the medium was replaced with a renal collecting duct principal cell-induction medium, to which 1 μM dDAVP, or with 1 μM dDAVP and 10 μM tolvaptan were added.

[3] = system: mouse renal collecting duct principal cell lines; settings: previously reported (Ando F. et al., Nat Commun. 2018); cited from earlier work
[4] = system: renal collecting duct principal cells; experiment: Apical-basal polarity of AQP2 in renal collecting duct principal cells, transwell culture; assay type: cell-based, human; settings: 100 nM dDAVP added to the medium in the lower chamber
Experimental: Ureteric bud organoids on Day 6 were prepared from the Tet-On-ELF5-1231A3 iPS cells using the method previously described (WO2021/066076). In a 1.5 mL tube, 10 ureteric bud organoids were collected and washed twice with 500 μL PBS. 100 μL Accutase was added thereto, and the mixture was incubated for 3 minutes at 37° C., 5% CO2. The ureteric bud organoids were completely transformed into single cells by pipetting, and 900 μL […] was added thereto to count cells. To evaluate the apical-basal polarity, the cells were seeded on a Transwell 12-well plate (Corning Inc., 3460). Specifically, the necessary amount of suspension was collected to achieve 0.5 to 2×10^5 cells/cm^2, and centrifuged at 300 G for 5 minutes. The cell count was preferably 1×10^5 cells/cm^2. After removing the supernatant, cells were resuspended in the renal collecting duct progenitor cell-induction medium, to which 0.125 μg/cm^2 iMatrix-511 silk and 10 μM Y-27632 were added, and the suspension was adjusted and seeded in the upper chamber so that each well contains 300 μL of the suspension. 0.1 μM TTNPB may be further added the medium. 2 or 3 days later, the medium in the upper chamber was removed, and 300 μL renal collecting duct principal cell-induction medium was placed in the lower chamber. […]

[5] = factor added to principal cell-induction medium excluding IBMX, planar culture
[6] = 400 μM IBMX with 4 μM doxycycline in renal collecting duct progenitor cell-induction medium

In the case of `C[C@]12CCC(=O)C=C1CC[C@@H]1[C@@H]2[C@@H](O)C[C@]2(C=O)[C@@H](C(=O)CO)CC[C@@H]12` [ALD, aldosterone], the AQP2 expression [1, 5] is reported as “the AQP2 expression was not promoted” and the “effect on AQP2 expression in combination with IBMX” value (from here on “effect on AQP2 expression”) ([1]; planar culture) is reported as “functioned additively with the addition of IBMX”.

In the case of `NC(=O)CC[C@@H]1NC(=O)[C@H](Cc2ccccc2)NC(=O)[C@H](Cc2ccc(O)cc2)NC(=O)[C@@H](N)CSSC[C@@H](C(=O)N2CCC[C@H]2C(=O)N[C@@H](CCCN=C(N)N)C(=O)NCC(N)=O)NC(=O)[C@H](CC(N)=O)NC1=O` [AVP, arginine vasopressin], the AQP2 expression [1, 5] is reported as “the AQP2 expression was not promoted” and the “effect on AQP2 expression” value ([1]; planar culture) is reported as “functioned additively with the addition of IBMX”.

With `CC(C)Cn1c(=O)n(C)c(=O)c2[nH]cnc21` [IBMX, 3-isobutyl-1-methylxanthine] the AQP2 expression [1, 6] was “early expressed AQP2”, the AVPR2 expression [1, 6] was “expressed AVPR2” and the AQP2 expression ([1]; IBMX added with dDAVP, or with either of AVP and dDAVP, ALD and K252a, planar culture) was “the AQP2 expression was promoted”. The “number of AQP2-expressing cells” value ([1]; IBMX at concentrations up to 400 μM, with 4 μM doxycycline) was “concentration-dependently increased”.

In the case of `COC(=O)[C@@]1(O)C[C@H]2O[C@]1(C)n1c3ccccc3c3c4c(c5c6ccccc6n2c5c31)C(=O)NC4` [K252a], the AQP2 expression [1, 5] is reported as “the AQP2 expression was not promoted” and the “effect on AQP2 expression” value ([1]; planar culture) is reported as “functioned additively with the addition of IBMX”.

For `NC(=O)CC[C@@H]1NC(=O)[C@H](Cc2ccccc2)NC(=O)[C@H](Cc2ccc(O)cc2)NC(=O)CCSSC[C@@H](C(=O)N2CCC[C@H]2C(=O)N[C@H](CCCN=C(N)N)C(=O)NCC(N)=O)NC(=O)[C@H](CC(N)=O)NC1=O` [dDAVP, 1-desamino-8-D-arginine vasopressin], the “water uptake and cystoid structure formation” value ([2]; 1 μM dDAVP) is listed as “water uptake was promoted from the next day, and a cystoid structure was formed”, the “AQP2 expression and apical polarization” value [3] is listed as “promotes AQP2 expression and causes apical polarization” and the “polarization of AQP2 expression” value [4] is listed as “increase in polarization of AQP2 expression to the contralateral side”. The “effect on AQP2 expression” value ([1]; planar culture) was “functioned additively with the addition of IBMX”.

In the case of `Cc1ccccc1C(=O)Nc1ccc(C(=O)N2CCCC(O)c3cc(Cl)ccc32)c(C)c1` (stereo not drawn) [tolvaptan], the “formation of a cystoid structure” value ([2]; 10 μM tolvaptan together with 1 μM dDAVP) is reported as “the formation of a cystoid structure was suppressed”.
